From patent publication US9273304B2, “Inactivation method” (Thermo Fisher Scientific Baltics UAB, priority 2006, dated 2016)

Assays:
[1] = test system: CFTR gene or insulin gene, human genome DNA as template; assay: PCR specificity and efficiency, mixtures set up at room temperature (CFTR and insulin gene fragments); assay type: biochemical
Experimental: Sets of PCR reactions were carried out in the Mastercycle (Eppendorf). The reactions performed using 2 units of both the unmodified and the modified enzymes. Composition of the buffer used in the experiments with the modified Taq DNA polymerase was described in the Example 7. The unmodified Taq DNA was tested in the buffer of the following compositions: 75 mM Tris-HCl (pH 8.8 at 25° C.), 20 mM (NH4)SO4, 0.01% Tween20. Both buffers were supplemented with 2 mM MgCl2, 0.2 mM dNTP, 0.5 μm of each PCR primer and human DNA (100 ng/50 μl). For amplification of 950 by DNA fragment of the CFTR gene, the same set of PCR primers was used as described in the Example 8. A 400 bp fragment of the insulin gene was amplified with the following set of PCR primers: […]
The components of PCR were mixed at room temperature and the reactions were performed using the following cycling profiles: • 1. For the 950 bp amplicon: 95° C.—5 min; (95° C.—[…], 50° C.—0.5 min, 72° C.—1 min)—40 cycles; 72° C.—7 min. • 2. For the 400 bp amplicon: 95° C.—5 min; (95° C.—0.5 min, 65° C.—0.5 min, 72° C.—1 min)—40 cycles; 72° C.—7 min.
After completion of PCR, the samples were mixed with aliquots (10 μl) of the 6× MassRuller™ Loading Dye (Fermentas), and the samples were analyzed by gel electrophoresis in 1.7% agarose. The Gene Ruler™ 100 bp DNA Ladder Plus (Fermentas) was used for evaluation of the amplicon size. Electrophoresis was performed in the TBE buffer (89 mM Tris, 89 mM H3BO3, and 1 mM EDTA) at 5 V/cm for 75 min. After completion of electrophoresis, gels were stained with ethidium bromide (0.5 μg/ml). Then, gels were destained in MiliQ-quality water for 20 minutes. DNA bands were visualized under UV.

[2] = test system: CFTR gene / insulin gene, human DNA; assay: PCR comparison with commercial hot-start Taq DNA polymerases (sensitivity, Fast PCR, extension time); assay type: biochemical
Experimental: Sets of PCR reactions were carried out in the Mastercycler (Eppendorf). The reactions were carried out with the following amounts of DNA polymerases: 0.3125 activity units, 0.625 activity units, 1.25 activity units, and 2.5 activity units. These sets of PCR were performed under conditions optimal for each DNA polymerase. The buffers for both the modified DNA polymerase of the current invention and the unmodified DNA polymerase were described in the Examples 7 and 11, while the buffers for the commercial DNA polymerases were those recommended by the vendors. All experiments were performed in the presence of 0.2 mM dNTP, 0.5 μM of each primers and human DNA (100 ng/50 μl). The PCR primers for amplification of the CFTR gene were described in the Example 8.
The PCR components were mixed at room temperature and the reaction was carried using the following cycling profile: 95° C.—4 min; (95° C.—0.5 min, 50° C.—0.5 min, 72° C.—1 min)—40 cycles; 72° C.—7 min, with the exception of the experiments with the HotStarTaq DNA polymerase, were 15 min pre-incubation at 95° C. was used, as recommended by the vendor.
Amplifications and analysis of reaction products were performed as described in the Example 12. The 1.25 activity units of each polymerase were used in the PCR. The following amounts of human DNA were used as templates in the PCR: 0.1 ng, 1 ng, 10 ng, and 100 ng.
Amplifications and analysis of PCR products were performed as described in the Example 12. The 1.25 activity units of each polymerase were used in the PCR. The set of PCR reactions was carried out at 20, 25, 30, 35 and 40 thermal cycles. respectively.
Sets of PCR reactions were carried out in the GeneAmp® PCR System 9700 (Applied Biosystems). The reactions were carried out with 1 activity unit of DNA polymerases. These sets of PCR reactions were performed in 20 μl of the buffers optimal for each. DNA polymerase. The buffers for the modified Tag polymerase and the unmodified Taq DNA polymerases were described in the Examples 7 and 11, while the buffers for the commercial DNA polymerases were those recommended by the vendors. The following commercial DNA polymerases were chosen for comparison: the FastStart Taq DNA polymerase (Roche), the AmpliTaq Gold DNA polymerase (Applied Biosystems), and the HotStarTaq DNA polymerase (Qiagen). All experiments were performed in the presence of 0.2 mM dNTP, 0.5 μM of each PCR primer and human DNA (40 ng/20 μl). The following primers were used for amplification of the insulin gene: […]
The PCR components were mixed in thin-walled PCR tubes on ice and the 500 bp amplicon was generated using the following reaction profile: 95° C.—30 s; (95° C.—0 s, 62° C.—12 s)—30 cycles; 72° C.—10 s.
Amplifications and analysis of PCR products were performed as described in the Example 12. […]

Taq DNA polymerase modified with N-etoxycarbonyl-2,3-dimethylmaleinimide: Recombinant Taq DNA polymerase reversibly inactivated by reaction with N-ethoxycarbonyl-2,3-dimethylmaleinimide in aqueous solution (preferred molar ratio 1/110)
yield of unspecific PCR byproducts versus unmodified DNA polymerase ([1]; CFTR and insulin gene fragments, PCR set up at room temperature, FIG. 10): lesser yield | yield of the byproducts caused by the primer dimerization versus unmodified DNA polymerase ([1]; insulin gene 400 bp fragment): lower | yield of the insulin amplicon versus unmodified DNA polymerase ([1]; insulin gene 400 bp fragment): higher yield | performance in the “Fast PCR” application, compared with DNA polymerases from other vendors ([2]; FIG. 14): superior performance | primer extension time, compared with DNA polymerases from other vendors ([2]; FIG. 15): shorter | PCR sensitivity regarding the enzyme concentration, compared with DNA polymerases from other vendors ([2]; versus HotStarTaq, AmpliTaq Gold, FastStart Taq, FIG. 11): higher sensitivity | PCR sensitivity regarding the target DNA concentration, compared with DNA polymerases from other vendors ([2]; versus HotStarTaq, AmpliTaq Gold, FastStart Taq, FIG. 12): higher sensitivity
